Assays:
[1] = system: SB.msgc-1; assay: area under the dose-response curve of % viability (trapezoidal, 11 doses) (% viability x log10 concentration); higher = less cytotoxic; settings: SB.msgc-1 (sporadic gastric cancer)
In short: (§1)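 Viability, normalised to DMSO, is listed either at the highest concentration or as trapezoidal area under the curve. It was measured in patient-derived gastric cancer cells, hereditary or sporadic, exposed for 48 h to 11 threefold-diluted compound concentrations and then assayed with CellTiter-Glo luminescence.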

[2] = system: SB.mhdgc-1; assay: as above; settings: SB.mhdgc-1 (hereditary c.1380delA CDH1 gastric cancer)
In short: as §1

[3] = system: SB.msgc-1; assay: viability at highest tested concentration (MAXR) relative to DMSO; higher = less cytotoxic; settings: SB.msgc-1 (sporadic gastric cancer)
In short: as §1

[4] = system: SB.mhdgc-1; assay: as above; settings: SB.mhdgc-1 (hereditary c.1380delA CDH1 gastric cancer)
In short: as §1

SMILES | area under the dose-response curve [1] | area under the dose-response curve [2] | viability [3] [%] | viability [4] [%]
CCCNC(=O)Nc1ccc(Oc2ncnc3cc(OC)c(OC)cc23)cc1Cl [KRN-633] (top concentration 46.0829 µM) | 441 | 454 | 28.9 | 47
NC(CO)(CO)CCc1ccc(Sc2cccc(OCc3ccccc3)c2)cc1Cl [KRP 203] (top concentration 46.0829 µM) | 486 | 453 | 2.25 | 4.12
O=C/1\C=C(/OC(=C1)/C2=C3SC4=C(SC3=CC=C2)C=CC=C4)N5CCOCC5 [KU-0064] (top concentration 46.0829 µM) | 500 | 471 | 61.6 | 49.9
O=C(c1ccc(/C=C/c2n[nH]c3ccccc23)cc1)N1CCNCC1 [KW-2449] (top concentration 46.0829 µM) | 517 | 497 | 77.9 | 23
CCc1c(O)cc(O)c(C(=O)c2ccc(OCCN3CCOCC3)c(OC)c2)c1CC(=O)N(CCOC)CCOC [KW-2478] (top concentration 46.0829 µM) | 397 | 405 | 48 | 46.4
O=C(Cc1ccc(-c2ccc(OCCN3CCOCC3)cc2)cn1)NCc1ccccc1 [KX-01] (top concentration 46.0829 µM) | 320 | 360 | 39.1 | 44.6
OC1=CC=C(C=C1)\C2=C(O)\C(=O)C3=C(O2)C=C(O)C=C3O [Kaempferol] (top concentration 46.0829 µM) | 465 | 465 | 21.6 | 52.4
NC[C@H]1O[C@H](O[C@@H]2[C@H](O)[C@@H](O[C@H]3O[C@H](CO)[C@@H](O)[C@H](N)[C@H]3O)[C@H](N)C[C@@H]2N)[C@H](O)[C@@H](O)[C@@H]1O [Kanamycin] (top concentration 46.0829 µM) | 513 | 562 | 98.1 | 107
O=C(O)c1ccccc1C(=O)Nc1ccc(-c2ccccc2)cc1 [Kartogenin] (top concentration 46.0829 µM) | 589 | 567 | 115 | 114
O=C(c1ccc(F)cc1)C1CCN(CCn2c(=O)[nH]c3ccccc3c2=O)CC1 [Ketanserin] (top concentration 46.0829 µM) | 523 | 536 | 115 | 109
CC(=O)N1CCN(c2ccc(OC[C@H]3CO[C@](Cn4ccnc4)(c4ccc(Cl)cc4Cl)O3)cc2)CC1 [Ketoconazole] (top concentration 46.0829 µM) | 536 | 532 | 53.7 | 49.6
O=C(c1ccccc1)c1ccc2n1CCC2C(=O)O (configuration not stated) [Ketorolac] (top concentration 46.0829 µM) | 408 | 453 | 37.5 | 31.4
CN1CC/C(CC1)=C3\c4ccccc4CC(=O)c2sccc23 [Ketotifen] (top concentration 46.0829 µM) | 468 | 446 | 9 | 41
c1coc(CNc2ncnc3nc[nH]c23)c1 [Kinetin] (top concentration 46.0829 µM) | 525 | 616 | 91.3 | 137
COC(=O)[C@@H](N)CCCNC(=N)N[N+](=O)[O-] [L-NAME] (top concentration 46.0829 µM) | 509 | 460 | 48.5 | 21.9
N[C@@H](Cc1cc(I)c(Oc2cc(I)c(O)c(I)c2)c(I)c1)C(=O)O [L-Thyroxine] (top concentration 46.0829 µM) | 555 | 467 | 98.7 | 68.1
C[Se]CC[C@H](N)C(=O)O [L-selenomethionine] (top concentration 92.1659 µM) | 312 | 494 | 70.2 | 92.5
C1CN\2C[C@@H](\N=C2S1)C3=CC=CC=C3 [L-tetramisol] (top concentration 46.0829 µM) | 442 | 564 | 91.3 | 130
C/C(O)=C(\C#N)C(=O)Nc1cc(Br)ccc1Br [LFM-A13] (top concentration 46.0829 µM) | 536 | 528 | 74 | 93.3
Cc1cc(-c2ncc(CC(=O)Nc3ccc(-c4cnccn4)cn3)cc2C)ccn1 [LGK974] (top concentration 46.0829 µM) | 462 | 495 | 6.91 | 17.8
N[S+](=O)([O-])c1cccc2c1C(=O)c1cccc(O)c1C2=O [LLL-12] (top concentration 46.0829 µM) | 274 | 240 | 2.09 | 3.33
COc1cc(C(=O)N2CCC(N3CCN(C)CC3)CC2)ccc1Nc1ncc2c(n1)N(C)c1ccccc1C(=O)N2C [LRRK2-IN-1] (top concentration 46.0829 µM) | 423 | 483 | 13.7 | 35.1
CC(N[C@H]1C[C@@H]1c1ccccc1)c1ccc2c(c1)OCCO2 (some centres not stated) [LSD1-C76] (top concentration 46.0829 µM) | 513 | 606 | 99.3 | 126

— the supplement of paper PMC5412046
